Experimental data: US20130280279A1, “PHARMACEUTICAL COMPOSITION OF A COMPLEX OF AN ANTI-DIG ANTIBODY AND DIGOXIGENIN THAT IS CONJUGATED TO A PEPTIDE” (HOFFMANN-LA ROCHE INC., priority 2011, published 2013)
Each block holds one molecule with its values, some of them ahead of it.

Columns and labels:
[1] = excitation and emission spectra of Cy5 derivatives; format: physicochemical
Excerpt: To evaluate whether digoxigenation of Cy5 alters its fluorescence features, we compared the excitation and emission spectra of Cy5 and compared it with the spectra of the newly generated Dig-Cy5 and with Dig-Cy5 within a complex with bispecific antibodies.

NPY2 receptor = target: T1, NPY2 receptor (Homo sapiens, UniProt P49146); test: cAMP assay: inhibition of Forskolin stimulated cAMP accumulation in HEK293/hNPY2R; format: cell-based
T1 construct: expressed in transfected cells; host or cells: HEK293/hNPY2R (grown under G418 selection)
T1 sequence (P49146 1-381): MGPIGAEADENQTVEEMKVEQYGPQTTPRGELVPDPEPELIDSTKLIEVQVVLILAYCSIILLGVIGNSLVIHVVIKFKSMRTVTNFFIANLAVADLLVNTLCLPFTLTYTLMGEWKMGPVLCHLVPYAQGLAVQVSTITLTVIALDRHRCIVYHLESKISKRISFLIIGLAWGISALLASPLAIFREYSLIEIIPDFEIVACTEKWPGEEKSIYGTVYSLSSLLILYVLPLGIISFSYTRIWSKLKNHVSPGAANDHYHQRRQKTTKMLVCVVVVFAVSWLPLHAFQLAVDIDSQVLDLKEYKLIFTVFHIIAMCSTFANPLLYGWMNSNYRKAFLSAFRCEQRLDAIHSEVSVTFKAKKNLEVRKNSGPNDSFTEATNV
Experimental: To perform the assay, on the first day, medium was discarded, and the monolayer cells were washed with 10 mL PBS per flask (T225). […] The flask was gently tapped and the cell suspension was pooled. Each flask was rinsed with 10 mL plating medium and centrifuged at 1000 rpm for 5 min. The suspension was pooled and counted. […] The plates were incubated at 37° C. overnight. […] The media and reagents were allowed to come to room temperature. […] The cell medium was tapped off with a gentle inversion of the cell plate on a paper towel. 50 μL of stimulation medium was placed per well (each concentration done in four replicates). The plates were incubated at room temperature for 30 min, and the cells were checked under a microscope for toxicity. After 30 min of treatment, the stimulation media was discarded and 50 μL/well of Assay Lysis Buffer (provided in the Tropix kit) was added. […] 20 μL of the lysate was transferred from stimulation plates into the pre-coated antibody plates (384-well) from the Tropix kit. […] The plates were incubated at room temperature while shaking for 1 hour. […] The plates were tapped to dry. […] Signal for 1 sec/well in a Luminometer. (VICTOR-V) was measured.

[2] = serum levels of Dig-peptide after i.v. application, Western Blot; format: in vivo, mice (strain NRMI)
Experimental: To generate Dig-Cy5 complexes, 886.1 nmol of lyophilized DIG-Cy5 were added to 446.4 nmol anti-DIG-Antibody in 20 mM Histidin/140 mM NaCl pH 6.0 in 4 portions within 1 h at RT, slowly shaking. After the addition of the last portion the sample was incubated for a total of 2 h. In case of the DIG-PYY complexes, 691.7 nmol of lyophilized DIG-PYY were added to 364 nmol anti-DIG-Antibody in 20 mM Histidin/140 mM NaCl pH 6.0 and treated equally as the DIG-Cy5 complexes. The samples were applied to a Superdex 200 HiLoad 16/60 prep grade size exclusion column with 20 mM Histidin/140 mM NaCl pH6.0 as mobile phase. Fractions containing the complex were pooled and concentrated to 19.4 mg/ml (DIG-Cy5 complex) and 19.9 mg/ml (DIG-PYY complex) with a centrifugal filtration device (Vivaspin 20, 30 kDa MWCO, GE Healthcare). The protein concentration of the DIG-Cy5 containing sample was determined by the formula 4A280−(A649×CF))×dilution factor)/ε. CF is the correction factor A280nm/A649nm which was determined as 0.008. Loading of the antibody with DIG-Cy5 was calculated as 1.2 moles of DIG-Cy5 per mole antibody with the formula: (A649nm/(εCy5×protein concentration M))×dilution factor. […] All samples were filtered with a PVDF syringe filter (0.22 μm pore size) under sterile conditions.
To analyze the influence on PK parameters of antibody-complexation of the digoxigenated peptide, 32.1 nmol of the peptide DIG-moPYY, or of the corresponding antibody complexated peptide in 20 mM Histidin/140 mM NaCl pH 6.0 were applied to 2 female mice (strain NRMI) for each substance. […] About 0.1 ml blood samples were collected after the following time points: 0.08 h, 2 h and 24 h for Mouse 1 and 0.08 h, 4 h 24 h for Mouse 2. Serum samples of at least 40 μl were obtained after 1 h at RT by centrifugation (9300×g, 3 min, 4° C.). Serum samples were stored at −80° C. […] The reason for that was that we had no direct means to detect the peptide in serum samples. Therefore, we devised a Western-Blot related assay to detect digoxigenated peptide in serum. In a first step, the serum samples were separated on reducing SDS-PAGE. Because sample preparation for that included exposure of the serum to high concentrations of SDS and reducing agents, Dig-peptides can become released from the (completely denatured/unfolded)<Dig> IgG. To mediate the release of peptide from the antibody complex and separate them by SDS-PAGE, 2 μl of each serum sample was diluted in 18 μl 20 mM Histidin/140 mM NaCl pH 6.0, mixed with 6.7 μl of 4×LDS sample buffer and 3 μl of 10× sample reducing agent (NuPAGE, Invitrogen) for 5 min at 95° C. […] Digoxigenated peptides were subsequently detected on the membrane with anti-digoxygenin antibodies. […] Chemiluminescence was detected with the LumiImager F 1 (Roche) with an exposure time of 20 min. […]

[3] = test system: diet-induced obese (DIO) mice; test: food intake in DIO (diet-induced-obesity) model; format: in vivo, C57Bl/6 mice; conditions: moPYY 11.05 μMol/kg, antibody-complexed DIG-moPYY 0.62 μMol/kg, up to 96 h post-dosing
Experimental: To determine the effect of NPY2-receptor agonists on food intake in these experiments we applied uncomplexed PYY-derived peptides and antibody complexed peptides to animals (adult male C57Bl/6 mice) in a DIO (diet-induced-obesity) model. The experiments were conducted on adult male C57Bl/6 mice obtained from Jackson laboratories. The mice were placed on a high fat diet (HFD; 60% of dietary kcal as fat, BioServe F3282) for over 20 weeks to induce obesity. The diet-induced obese (DIO) mice were sorted by body weight and 24 h food intake, and housed individually in standard caging at 22° C. in a reversed 12-h light/12-h dark cycle, and were acclimated to these conditions for at least 6 days before start of the experiment. Food (HFD) and water were provided ad libitum throughout the study. Ab-PYY3-37 fusion proteins and the vehicle controls were injected at the beginning of the dark cycle and food intake measured at various time intervals up to 96 h post-dosing (N=6-8 mice/group). Uncomplexed peptide moPYY was applied at concentration of 11.05 μMol/kg. Antibody-complexed DIG-moPYY was applied at a concentration of 0.62 μMol/kg. Thus, the injected molar concentration of the antibody complexed peptide was more than 17-fold lower than that of the uncomplexed peptide. […]

Emission maximum [1]: 680 nm
Excitation maximum [1]: 652 nm
SMILES: CCN1/C(=C/C=C/C=C/C2=[N+](CCCCCC(=O)O)c3ccc(S(=O)(=O)O)cc3C2(C)C)C(C)(C)c2cc(S(=O)(=O)[O-])ccc21 [Cy5]

SMILES: CC[C@H](C)[C@H](NC(C)=O)C(=O)N[C@@H](CCCCNC(=O)CCOCCOCCOCCNC(=O)CO[C@H]1CC[C@@]2(C)[C@H](CC[C@@H]3[C@@H]2C[C@@H](O)[C@]2(C)[C@@H](C4=CC(=O)OC4)CC[C@]32O)C1)C(=O)N1CCN(c2ccc3ncn(CC(=O)N[C@@H](CCCNC(=N)N)C(=O)N[C@@H](Cc4c[nH]cn4)C(=O)N[C@@H](Cc4ccc(O)cc4)C(=O)N[C@@H](CC(C)C)C(=O)N[C@@H](CC(N)=O)C(=O)N[C@@H](Cc4c[nH]c5ccccc45)C(=O)N[C@H](C(=O)N[C@H](C(=O)N[C@@H](CCCNC(=N)N)C(=O)N[C@@H](CCC(N)=O)C(=O)N(C)[C@@H](CCCNC(=N)N)C(=O)N[C@@H](Cc4ccc(O)cc4)C(N)=O)[C@@H](C)O)C(C)C)c(=O)c3c2)CC1 [DIG-moPYY]
IC50 (NPY2 receptor): 420 pM
Dig-peptide signal in serum (Western Blot, in words) ([2]; 5 min after administration): only in trace amounts
Dig-peptide signal in serum (Western Blot, in words) ([2]; later time points up to 24 hrs after administration): no defined peptide band are detectable

SMILES: CC[C@H](C)[C@H](NC(C)=O)C(=O)N[C@@H](CCCCNC(=O)CCOCCOCCOCCNC(=O)CO[C@H]1CC[C@@]2(C)[C@H](CC[C@@H]3[C@@H]2C[C@@H](O)[C@]2(C)[C@@H](C4=CC(=O)OC4)CC[C@]32O)C1)C(=O)N1CCN(c2ccc3ncn(CC(=O)N[C@@H](CCCNC(=N)N)C(=O)N[C@@H](Cc4c[nH]cn4)C(=O)N[C@@H](Cc4ccc(O)cc4)C(=O)N[C@@H](CC(C)C)C(=O)N[C@@H](CC(N)=O)C(=O)N[C@@H](Cc4c[nH]c5ccccc45)C(=O)N[C@H](C(=O)N[C@H](C(=O)N[C@@H](CCCNC(=N)N)C(=O)N[C@@H](CCC(N)=O)C(=O)N(C)[C@@H](CCCNC(=N)N)C(=O)N[C@@H](Cc4ccc(O)cc4)C(N)=O)[C@@H](C)O)C(C)C)c(=O)c3c2)CC1 [<Dig> DIGmoPYY]
biological activity in vitro compared to PEG-peptide (NPY2 receptor; cAMP assay): four fold better
Dig-peptide signal in serum (Western Blot, in words) ([2]; 5 min after administration, listed as <DIG>-DIG-moPYY): strong signals
Dig-peptide signal in serum (Western Blot, in words) ([2]; later time points up to 24 hrs after administration, listed as <DIG>-DIG-moPYY): still detectable with good signals
effect on food intake [3]: strikingly reduced the food-intake
